# Where two headings read alike, the source gives them in different places.
# What was measured:
# [1] = test system: CHP-212; experiment: Cell Proliferation Assay ±NA, CHP-212; format: cell-based; settings: Homo sapiens, CHP-212, autonomic ganglia, treatment time 72 hr
# Procedure: (§1) The purpose of this assay is to measure the ability of a compound to inhibit proliferation of endometrium, kidney, adrenal gland, and autonomic ganglia cancer cell lines dependent on the NAMPT-mediated NAD^+ formation in the presence or absence of NA (10 μM) in vitro. One day before the planned initiation of compound treatment portion of the assay, one vial of assay ready frozen cells is thawed, and the cells are grown overnight in the media as shown in Table 3 under 5% CO2 at 37° C. Then, the cell layer is briefly rinsed with 0.25% (w/v) Trypsin-0.038% (w/v) EDTA solution followed with the addition of 3.0 ml of Trypsin-EDTA solution. Once the cell layer is dispersed, 8.0 ml of complete growth medium (Table 3) is added and cells are aspirated by gently pipetting. The cell suspension is transferred to a centrifuge tube and centrifuged at 800-1000 rpm for 3-5 minutes. The supernatant is discarded using a vacuum pump. The cell pellet is suspended in a complete medium by gently pipetting. The cell numbers are counted and adjusted to the appropriate density (Table 3). […] The bottom of each plate is pasted with a white back seal and luminescence is recorded using a Flexstation 3 with the following settings: Luminescence and integration time of 500 ms.
# [2] = test system: HEC-1-A; experiment: Cell Proliferation Assay ±NA, HEC-1-A; format: cell-based; settings: Homo sapiens, endometrium, treatment time 72 hr, tested in a growth medium containing nicotinic acid
# Procedure: as §1
# [3] = test system: SNG-M; experiment: Cell Proliferation Assay ±NA, SNG-M; format: cell-based; settings: endometrium, treatment time 72 hr
# Procedure: as §1
# [4] = test system: NCI-H1155 Tumor Xenografts; experiment: LC-MS Analysis of NAD+ in NCI-H1155 Tumor Xenografts; format: in vivo, mice; settings: oral gavage
# Procedure: The purpose of this assay is to measure effects of NAMPT inhibitors on NAD^+ formation in cancer cells. LC-MS analysis of NAD^+ metabolites: nicotinamide mononucleotide (NMN), NAD^+, reduced nicotinamide adenine dinucleotide (NADH), and nicotinamide adenine dinucleotide phosphate (NADP) is performed on an HPLC system coupled to a Thermo Quantum Ultra triple quadrupole mass spectrometer operated in positive heated electrospray mode with selected reaction monitoring detection. For cell extracts, 50 μL of extract and 10 μL of 10 μM internal standard (IS) solution is transferred to a 96-well plate, dried under nitrogen and reconstituted in 50 μL of water. For tissue extracts, 20 μL of extract and 10 μL of IS solution are dried and reconstituted in 50 μL water. The IS solution contains 10 μM nicotinamide-d4 (C/D/N Isotopes), nicotinic acid-d4 (C/D/N Isotopes), nicotinamide mononucleotide-d4 (prepared by custom synthesis) and nicotinamide 1,N^6-ethenoadenine dinucleotide in methanol. The metabolites are separated on a Waters XBRIDGE™ Amide (2.1×50 mm, 3 μm) with an injection volume of 10 μL and a flow rate of 1 mL/minute using 10 mM ammonium acetate in 95% acetonitrile for mobile phase A and 10 mM ammonium acetate in 50% acetonitrile for mobile phase B. The gradient is as follows: 0 minutes, 0% B; 2.5 minutes, 70% B; 2.51 minutes, 100% B; 2.8 minutes, 100% B; 2.81 minutes, 0% B, 3.6 minutes, 0% B.
# The purpose of this assay is to measure the effects of NAMPT inhibitors on NAD^+ levels in vivo as described above. Tumors are grown and treated as described below for efficacy in xenograft tumor models below (7 animals/group). Each compound is also formulated as described for efficacy in xenograft tumor models below. Vehicle is 20% of CAPTISOL® and 25 mM of phosphate buffer, pH 2 without compound. After the completion of the treatment, tumor tissues (˜50 mg each) are homogenized in an ice cold extraction buffer (1 mL of 70% methanol/water; HPLC grade for 2 minutes in a tissue lyser II (QIAGEN™) at frequency 30 Hz. The resulting preparations are centrifuged at 14000×g for 6 minutes. The supernatant fractions (500 μL each) are collected and extracted with chloroform (0.5 mL). The aqueous fractions (0.3 mL each) are collected into a 96-well plate ready for LC-MS analysis. The LC-MS analysis of NAD metabolites is performed as described above.
# The purpose of this assay is to measure reduction in tumor volume in response to test compound administration. A2780 and NCI-H1155 (NSCLC) cells are grown as described above for IVTI studies. Cells are harvested and injected subcutaneously onto the rear flank of nude mice. When tumors are established (7-21 days after implant), animals are randomized and grouped into control and test groups (7 animals/group). The test compound is formulated in 20% of CAPTISOL® and 25 mM of phosphate buffer, pH 2. Test compound and vehicle (20% of CAPTISOL® and 25 mM of phosphate buffer, pH 2 without compound) are administered by oral gavage. Tumor response is determined by tumor volume measurement (caliper) performed twice a week during the course of treatment and reported as percent of tumor volume of each treatment group divided by tumor volume of the vehicle control group. […]
# [5] = NA 0.0 μM, read-out: IC50 (μM) NA (0.0 μM)
# [6] = NA 10 μM, read-out: IC50 (μM) NA (10 μM)
Compound,"IC50 [1, 5]","IC50 [1, 6]","IC50 [2, 5]","IC50 [2, 6]","IC50 [3, 5]","IC50 [3, 6]",NAD levels (pmol/mg tissue) ([4]; 2.5 mg/kg (BID)),NAD levels (pmol/mg tissue) ([4]; 5 mg/kg (BID)),NAD levels (pmol/mg tissue) ([4]; 10 mg/kg (BID)),NAD levels (pmol/mg tissue) ([4]; 20 mg/kg (BID)),NAD levels (pmol/mg tissue) ([4]; 8 mg/kg (BID)),NAD levels (pmol/mg tissue) ([4]; 16 mg/kg (BID)),NAD levels (pmol/mg tissue) ([4]; 32 mg/kg (BID))
"CC(C)(O)CS(=O)(=O)Nc1ccc2c(c1)CCN(C(=O)COc1cccnc1)C2 [Example 1, 2-Hydroxy-2-methyl-N-[2-[2-(3-pyridyloxy)acetyl]-3,4-dihydro-1H-isoquinolin-6-yl]propane-1-sulfonamide]",0.07 µM,0.07 µM,> 2 µM,> 2 µM,0.02 µM,0.02 µM,11.38 pmol/mg tissue,7.48 pmol/mg tissue,3.63 pmol/mg tissue,1.82 pmol/mg tissue,–,–,–
"COCCS(=O)(=O)Nc1ccc2c(c1)CCN(C(=O)COc1cccnc1)C2 [Example 2, 2-Methoxy-N-[2-[2-(3-pyridyloxy)acetyl]-3,4-dihydro-1H-isoquinolin-6-yl]ethanesulfonamide]",–,–,–,–,–,–,–,–,–,–,5.19 pmol/mg tissue,1.98 pmol/mg tissue,0.84 pmol/mg tissue

# Source: patent US20160229835A1, “NOVEL PYRIDYLOXYACETYL TETRAHYDROISOQUINOLINE COMPOUNDS USEFUL AS NAMPT INHIBITORS” (ELI LILLY AND COMPANY, priority 2013, published 2016)
